Assay results as given in paper PMC3895464 (Bioorganic & medicinal chemistry, 2013).

Tests used:
[1] = tested on: HT29, HCA-7 and Apc10.1 cells; assay: Cell growth assays, IC50 ranges over the three cell lines; assay type: cell-based; conditions: read-out: IC50 values (tumor cell survival)
[2] = tested on: COX-2 and 5-LOX expression in HT29 cells; assay: COX-2 and 5-LOX expression in HT29 cells; assay type: cell-based, human; conditions: Figure 2B
[3] = tested on: HT29 cells; assay: Cell proliferation assay; assay type: cell-based; conditions: Homo sapiens, HT-29, read-out: IC50 cell proliferation, HT29, Has2 −
[4] = tested on: HCA-7 cells; assay: Cell proliferation assay; assay type: cell-based; conditions: Homo sapiens, HCA-7, read-out: IC50 cell proliferation, HCA-7, Has2 −
[5] = tested on: Apc10.1 cells; assay: Cell proliferation assay; assay type: cell-based, mice; conditions: Mus musculus, read-out: IC50 cell proliferation, Apc10.1, Has2 −
[6] = tested on: pre-neoplastic Apc10.1 cells; assay: MTT assay on pre-neoplastic Apc10.1 cells; assay type: cell-based; conditions: Apc10.1, 24 h

IC50 [3]	Structure (SMILES)	IC50 [1]	COX-2 and 5-LOX levels [2]	IC50 [4]	IC50 [5]	cytotoxic activity (MTT) [6]
–	CC(C)(C)C1=CC(=NNC(=O)c2ccccc2)C=C(C(C)(C)C)C1=O [BQBH, N’- (3,5-di-tert-butyl-4-oxocyclohexa-2,5-dienylidene) benzohydrazide]	12 to 20 µM	substantial inhibition	–	–	–
75 ± 8.3 µM	CC1(C)Cc2c(-c3ccccc3)c(-c3ccc(Cl)cc3)c(CC(=O)O)n2C1 [Licofelone, [6-(4-chlorophenyl)-2,2-dimethyl-7-phenyl-2,3-dihydro-1H-pyrrolizin-5-yl]acetic acid]	45 to 75 µM	substantial inhibition	48 ± 5.2 µM	45 ± 7.2 µM	–
–	CC(C)(C)C1=CC(=NNC(=O)c2cccnc2)C=C(C(C)(C)C)C1=O [BQNH, N’- (3,5-di-tert-butyl-4-oxocyclohexa-2,5-dienylidene) nicotinohydrazide]	6.5 to 11 µM	substantial inhibition	–	–	reasonable cytotoxic activity
–	CC(C)(C)C1=CC(=NNC(=O)c2ccncc2)C=C(C(C)(C)C)C1=O [BQIH, N’- (3,5-di-tert-butyl-4-oxocyclohexa-2,5-dienylidene) isonicotinohydrazide]	12 to 20 µM	substantial inhibition	–	–	–
–	Cc1ccc(-c2cc(C(F)(F)F)nn2-c2ccc(S(N)(=O)=O)cc2)cc1 [Celecoxib, reference compound]	2 to 4.2 µM	–	–	–	–
